Reference: patent US9440969B2, “Compounds and methods for kinase modulation, and indications therefor” (PLEXXIKON INC., priority 2009, dated 2016)

Columns and labels:
[1] = target: B-Raf (Homo sapiens, UniProt P15056); experiment: B-Raf kinase activity assay (AlphaScreen, biotin-MEK1 substrate); details: 100 μM ATP, 100 nM biotin-MEK1, 45 minutes at room temperature; read-out: Biochemical activity (IC50 μM) B-Raf
Experimental: (§1) Assays for biochemical and cell based activity are known in the art, for example, as described in PCT publication WO 2007/002433, the disclosure of which is hereby incorporated by reference as it relates to such assays. For example, the biochemical activity IC50 values are determined with respect to inhibition of B-Raf kinase activity, c-Raf-1 kinase activity, or B-Raf V600E kinase activity, where inhibition of phosphorylation of a peptide substrate is measured as a function of compound concentration. Compounds to be tested are diluted in dimethyl sulfoxide to a concentration of 0.1 mM. These are serially diluted 15 μL into 30 μL of dimethyl sulfoxide seven times in 96 well plates for a total of 8 dilution points, and for each dilution point 1 μL is added to a well of an assay plate. Plates are prepared such that each well in a 384 well plate contains 1 μL of compound in 10 μL, volume with 0.1 ng Raf enzyme (i.e. any of B-Raf, c-Raf-1 or B-Raf V600E, Upstate Biotechnology or prepared by methods known to one of skill in the art), 50 mM HEPES, pH 7.0, 50 mM NaCl, 2 mM MgCl2, 1 mM MnCl2, 0.01% Tween-20, 1 mM DTT, and 100 nM biotin-MEK1 as substrate. The reaction is started with addition of 10 μL of 200 μM ATP (i.e. final 100 μM ATP). After incubation of the kinase reaction for 45 minutes at room temperature, 5 μL/well of Stop Solution is added (25 mM Hepes pH 7.5, 100 mM EDTA, 0.01% BSA with donor beads (Streptavidin coated beads, Perkin Elmer), acceptor beads (Protein A coated, Perkin Elmer), and anti phosphor MEK1/2 antibody (CellSignal), each at final concentration 10 μg/mL). The plates are incubated for 3 hours at room temperature and read on Envision reader (Perkin Elmer). Phosphorylation of Mek1 results in binding of the anti-phosphor-MEK1/2 antibody and association of the donor and acceptor beads such that signal correlates with kinase activity. The signal vs. compound concentration is used to determine the IC50.

[2] = target: B-Raf V600E (Homo sapiens, UniProt P15056, V600E); experiment: B-Raf V600E kinase activity assay (AlphaScreen, biotin-MEK1 substrate); details: 100 μM ATP, 100 nM biotin-MEK1, 45 minutes at room temperature, read-out: Biochemical activity (IC50 μM) V600E
Experimental: as §1

[3] = target: c-Raf-1 (Homo sapiens, UniProt P04049); experiment: c-Raf-1 kinase activity assay (AlphaScreen, biotin-MEK1 substrate); details: 100 μM ATP, 100 nM biotin-MEK1, 45 minutes at room temperature; read-out: Biochemical activity (IC50 μM) c-Raf-1
Experimental: as §1

[4] = Relative solubility by turbidity in aqueous buffers (pH 1.5, 4.5, 6.8, 7.4); assay type: physicochemical; details: for turbidity threshold (L, M, H) 1.4: pH 1.5 buffer (SGF); for turbidity threshold (L, M, H) 4.5: pH 4.5 buffer (SIF); for turbidity threshold (L, M, H) 6.8: pH 6.8 buffer (SIF); for turbidity threshold (L, M, H) 7.4: pH 7.4 buffer (HEPES)
Experimental: As an indication of relative solubility, the turbidity of compounds in aqueous solutions is assessed. To assess possible compound properties in different physiological compartments, such as stomach, intestine, and blood, a series of aqueous buffers with varying pH is used. Thus each compound is diluted into four different physiologically relevant buffers and solution turbidity is measured by spectrophotometry.
Compounds are dissolved at a concentration of 25 mM in dimethyl sulfoxide, then serially diluted 1:1 into a 96 well plate, diluting 10 times in pure dimethyl sulfoxide, with the final well of each row a dimethyl sulfoxide blank. In an assay plate, 99 μL of appropriate buffer is added to each well, and 1 μL of each sample dilution is added to the buffer, achieving a range of final total concentrations in aqueous solutions having different pH. The buffers used are Simulated Gastric Fluid (SGF-pH 1.5) 0.5M NaCl, pH 1.5; Simulated Intestinal fluid (SIF-pH 4.5 and pH 6.8) 0.05M NaH2PO4, pH 4.5 and 6.8; and Hepes Buffer (HEPES-pH 7.4) 10 mM HEPES, 150 mM NaCl, pH 7.4. Control compounds pyrene, estriol and propranolol HCl are also assessed. Plates are spun and then mixed for 1 minute, and the absorbance is read using a Tecan Safire II to read wavelengths in the visible range (490, 535, and 650 nm) at four locations per well, reflecting the degree of turbidity present. The average optical density for each wavelength in each well is graphed vs. compound concentration, and the concentration at which the curve crosses a threshold O.D. of 0.01 for each wavelength is reported as the endpoint turbidity assay result. The average of the three wavelengths is used to compare turbidity of compounds. Compounds are considered to have low solubility if the threshold concentration is <31.3 μM, moderate solubility if the threshold concentration is 31.3 μM to 250 μM, and high solubility if the threshold concentration is >250 μM.
The following table indicates the relative solubility (L=low, M=moderate, H=high) based on turbidity threshold concentration at each pH for exemplary compounds according to the invention: […]

Sequence of B-Raf V600E (P15056 whole entry V600E): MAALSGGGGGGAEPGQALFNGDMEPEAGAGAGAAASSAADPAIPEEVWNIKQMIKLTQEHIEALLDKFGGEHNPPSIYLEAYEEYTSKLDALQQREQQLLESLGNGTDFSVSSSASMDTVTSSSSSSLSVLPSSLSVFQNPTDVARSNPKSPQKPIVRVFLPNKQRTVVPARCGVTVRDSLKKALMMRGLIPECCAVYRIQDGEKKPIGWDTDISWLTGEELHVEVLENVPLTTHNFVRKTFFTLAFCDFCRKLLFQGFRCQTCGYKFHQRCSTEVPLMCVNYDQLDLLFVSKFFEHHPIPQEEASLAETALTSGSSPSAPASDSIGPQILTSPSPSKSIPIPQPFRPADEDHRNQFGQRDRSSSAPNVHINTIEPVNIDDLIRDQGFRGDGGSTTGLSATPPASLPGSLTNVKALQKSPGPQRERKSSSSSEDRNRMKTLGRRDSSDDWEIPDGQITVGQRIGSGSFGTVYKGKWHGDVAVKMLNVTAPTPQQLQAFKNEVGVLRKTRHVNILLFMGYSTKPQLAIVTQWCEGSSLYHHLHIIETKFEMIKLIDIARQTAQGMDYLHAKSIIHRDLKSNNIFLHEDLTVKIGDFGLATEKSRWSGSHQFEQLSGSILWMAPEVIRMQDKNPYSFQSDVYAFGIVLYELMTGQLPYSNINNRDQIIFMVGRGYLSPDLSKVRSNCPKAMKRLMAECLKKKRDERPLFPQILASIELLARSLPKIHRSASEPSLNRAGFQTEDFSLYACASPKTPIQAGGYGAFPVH
Sequence of B-Raf (P15056 whole entry): as the sequence (P15056 whole entry V600E) above, with E600V counted along it
Sequence of c-Raf-1 (P04049 whole entry Y340D/Y341D, form open): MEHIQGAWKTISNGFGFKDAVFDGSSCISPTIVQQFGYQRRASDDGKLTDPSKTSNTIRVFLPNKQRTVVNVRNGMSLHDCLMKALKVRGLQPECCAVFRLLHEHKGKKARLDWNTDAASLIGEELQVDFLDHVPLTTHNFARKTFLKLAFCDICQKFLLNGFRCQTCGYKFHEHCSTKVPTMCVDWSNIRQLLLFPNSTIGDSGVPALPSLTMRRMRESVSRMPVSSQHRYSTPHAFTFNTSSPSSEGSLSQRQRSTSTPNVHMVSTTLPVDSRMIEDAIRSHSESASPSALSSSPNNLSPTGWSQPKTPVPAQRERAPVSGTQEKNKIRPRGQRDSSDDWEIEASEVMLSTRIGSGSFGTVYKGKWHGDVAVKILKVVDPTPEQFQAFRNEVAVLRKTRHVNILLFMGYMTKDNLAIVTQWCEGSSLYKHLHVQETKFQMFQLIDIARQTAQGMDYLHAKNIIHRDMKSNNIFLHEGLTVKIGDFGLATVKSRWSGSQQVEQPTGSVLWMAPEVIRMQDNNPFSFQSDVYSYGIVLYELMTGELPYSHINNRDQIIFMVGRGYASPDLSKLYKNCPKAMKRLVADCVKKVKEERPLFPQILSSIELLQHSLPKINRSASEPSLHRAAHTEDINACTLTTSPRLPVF

SMILES | IC50 [1] [µM] | IC50 [2] [µM] | IC50 [3] [µM] | turbidity threshold (L, M, H) 1.4 [4] | turbidity threshold (L, M, H) 4.5 [4] | turbidity threshold (L, M, H) 6.8 [4] | turbidity threshold (L, M, H) 7.4 [4]
Cc1cc(-c2cnc3[nH]cc(C(=O)c4c(F)ccc(NS(=O)(=O)c5cc(F)ccc5F)c4F)c3c2)n(C)n1 [P-1010, N-{3-[5-(2,5-Dimethyl-2H-pyrazol-3-yl)-1H-pyrrolo[2,3-b]pyridine-3-carbonyl]-2,4-difluoro-phenyl}-2,5-difluoro-benzenesulfonamide] | < 0.1 | < 0.1 | < 0.1 | M (moderate solubility if the threshold concentration is 31.3 μM to 250 μM) | L (low solubility if the threshold concentration is <31.3 μM) | L (low solubility if the threshold concentration is <31.3 μM) | M (moderate solubility if the threshold concentration is 31.3 μM to 250 μM)
Cn1ccc(-c2cnc3[nH]cc(C(=O)c4c(F)ccc(NS(=O)(=O)c5cc(F)ccc5F)c4F)c3c2)n1 [P-1011, N-{2,4-Difluoro-3-[5-(1-methyl-1H-pyrazol-3-yl)-1H-pyrrolo[2,3-b]pyridine-3-carbonyl]-phenyl}-2,5-difluoro-benzenesulfonamide] | < 0.1 | < 0.1 | < 0.1 | L (low solubility if the threshold concentration is <31.3 μM) | L (low solubility if the threshold concentration is <31.3 μM) | M (moderate solubility if the threshold concentration is 31.3 μM to 250 μM) | M (moderate solubility if the threshold concentration is 31.3 μM to 250 μM)
COc1ccc(-c2cnc3[nH]cc(C(=O)c4c(F)ccc(NS(=O)(=O)c5cc(F)ccc5F)c4F)c3c2)c(OC)n1 [P-1406, N-{3-[5-(2,6-Dimethoxy-pyridin-3-yl)-1H-pyrrolo[2,3-b]pyridine-3-carbonyl]-2,4-difluoro-phenyl}-2,5-difluoro-benzenesulfonamide] | < 0.1 | < 0.1 | < 0.1 | L (low solubility if the threshold concentration is <31.3 μM) | L (low solubility if the threshold concentration is <31.3 μM) | L (low solubility if the threshold concentration is <31.3 μM) | L (low solubility if the threshold concentration is <31.3 μM)
CN(C)c1ccc(-c2cnc3[nH]cc(C(=O)c4c(F)ccc(NS(=O)(=O)c5cc(F)ccc5F)c4F)c3c2)cn1 [P-1409, N-{3-[5-(6-Dimethylamino-pyridin-3-yl)-1H-pyrrolo[2,3-b]pyridine-3-carbonyl]-2,4-difluoro-phenyl}-2,5-difluoro-benzenesulfonamide] | < 0.1 | < 0.1 | < 0.1 | L (low solubility if the threshold concentration is <31.3 μM) | L (low solubility if the threshold concentration is <31.3 μM) | L (low solubility if the threshold concentration is <31.3 μM) | L (low solubility if the threshold concentration is <31.3 μM)
O=C(c1c(F)ccc(NS(=O)(=O)c2cc(F)ccc2F)c1F)c1c[nH]c2ncc(-c3cncnc3)cc12 [P-1500, N-[2,4-Difluoro-3-(5-pyrimidin-5-yl-1H-pyrrolo[2,3-b]pyridine-3-carbonyl)-phenyl]-2,5-difluoro-benzenesulfonamide] | < 0.1 | < 0.1 | < 0.1 | – | – | – | –
COc1ncc(-c2cnc3[nH]cc(C(=O)c4c(F)ccc(NS(=O)(=O)c5cc(F)ccc5F)c4F)c3c2)c(OC)n1 [P-1501, N-{3-[5-(2,4-Dimethoxy-pyrimidin-5-yl)-1H-pyrrolo[2,3-b]pyridine-3-carbonyl]-2,4-difluoro-phenyl}-2,5-difluoro-benzenesulfonamide] | < 0.1 | < 0.1 | < 0.1 | L (low solubility if the threshold concentration is <31.3 μM) | L (low solubility if the threshold concentration is <31.3 μM) | L (low solubility if the threshold concentration is <31.3 μM) | L (low solubility if the threshold concentration is <31.3 μM)
CN(C)c1ncc(-c2cnc3[nH]cc(C(=O)c4c(F)ccc(NS(=O)(=O)c5cc(F)ccc5F)c4F)c3c2)cn1 [P-1502, N-{3-[5-(2-Dimethylamino-pyrimidin-5-yl)-1H-pyrrolo[2,3-b]pyridine-3-carbonyl]-2,4-difluoro-phenyl}-2,5-difluoro-benzenesulfonamide] | < 0.1 | < 0.1 | < 0.1 | L (low solubility if the threshold concentration is <31.3 μM) | L (low solubility if the threshold concentration is <31.3 μM) | L (low solubility if the threshold concentration is <31.3 μM) | L (low solubility if the threshold concentration is <31.3 μM)
CNS(=O)(=O)c1ccc(-c2cnc3[nH]cc(C(=O)c4c(F)ccc(NS(=O)(=O)c5cc(F)ccc5F)c4F)c3c2)cc1 [P-1706, N-{2,4-Difluoro-3-[5-(4-methylsulfamoyl-phenyl)-1H-pyrrolo[2,3-b]pyridine-3-carbonyl]-phenyl}-2,5-difluoro-benzenesulfonamide] | < 0.1 | < 0.1 | < 0.1 | – | – | – | –
NS(=O)(=O)c1ccc(-c2cnc3[nH]cc(C(=O)c4c(F)ccc(NS(=O)(=O)c5cc(F)ccc5F)c4F)c3c2)cc1 [P-1707, N-{2,4-Difluoro-3-[5-(4-sulfamoyl-phenyl)-1H-pyrrolo[2,3-b]pyridine-3-carbonyl]-phenyl}-2,5-difluoro-benzenesulfonamide] | < 0.1 | < 0.1 | < 0.1 | – | – | – | –
CCCS(=O)(=O)Nc1ccc(F)c(C(=O)c2c[nH]c3ncc(NC(=O)c4cccnc4)cc23)c1F [P-1800, N-{3-[2,6-Difluoro-3-(propane-1-sulfonylamino)-benzoyl]-1H-pyrrolo[2,3-b]pyridin-5-yl}-nicotinamide] | < 1 | < 0.1 | < 0.1 | – | – | – | –
CCCS(=O)(=O)Nc1ccc(F)c(C(=O)c2c[nH]c3ncc(NC(=O)C4C=C(C)ON4)cc23)c1F (stereo not drawn) [P-1802, 5-Methyl-2,3-dihydro-isoxazole-3-carboxylic acid {3-[2,6-difluoro-3-(propane-1-sulfonylamino)-benzoyl]-1H-pyrrolo[2,3-b]pyridin-5-yl}-amide] | < 1 | < 0.1 | ~0.1 | – | – | – | –
